# Results taken from patent US20240158446A1, “CYCLIC COMPOUND HAVING SELECTIVE INHIBITORY ACTION ON KRAS OVER HRAS AND NRAS” (CHUGAI SEIYAKU KABUSHIKI KAISHA, priority 2021, published 2024).
# *1 amine or outer side, *2 acyl side, *3 side chain or, on linkers, in order; H or OH if unused. Where a SMILES comes first, the peptide text is derived from it. Bridges are numbered along the chain shown (N, C = ends). [ ]: non-standard residue; d: D form. The star is where a group is joined. hPhe(3-Cl-4-CF3) = N[C@@H](CCc1ccc(C(F)(F)F)c(Cl)c1)C(=O)O; NPrPhe(4-CF3) = CCCN[C@@H](Cc1ccc(C(F)(F)F)cc1)C(=O)O; NEtPhe(4-CF3) = CCN[C@@H](Cc1ccc(C(F)(F)F)cc1)C(=O)O; X16 = CCCN([C@@H](Cc1ccc(OC)cc1)C(=O)[*:2])[*:1]; NMeGly(cPent) = CN[C@H](C(=O)O)C1CCCC1; Pro(4,4-F2) = O=C(O)[C@@H]1CC(F)(F)CN1; NMeD = CN[C@@H](CC(=O)O)C(=O)O; NMeL = CN[C@@H](CC(C)C)C(=O)O; NMeNva = CCC[C@H](NC)C(=O)O; Morpholide = C1CN(*)CCO1; NMeA = CN[C@@H](C)C(=O)O; Ac5c = NC1(C(=O)O)CCCC1; Aze = O=C(O)[C@@H]1CCN1; Ac4c = NC1(C(=O)O)CCC1; Sar = CNCC(=O)O
# Columns and labels:
# [1] = biological target: GDP-bound NRAS wild-type protein (Homo sapiens, UniProt P01111); assay: Binding to NRAS by surface plasmon resonance (SPR), Single Cycle Kinetics; settings: SPR, GDP-bound NRAS wild-type protein vs GDP-bound KRAS wild-type protein
# [2] = biological target: GDP-bound HRAS wild-type protein (Homo sapiens, UniProt P01112); assay: Binding to HRAS by surface plasmon resonance (SPR), Single Cycle Kinetics; settings: SPR, GDP-bound HRAS wild-type protein vs GDP-bound KRAS wild-type protein
# [3] = biological target: GDP-bound KRAS wild-type protein (Homo sapiens, UniProt P01116); assay: Binding to KRAS by surface plasmon resonance (SPR), Single Cycle Kinetics; settings: SPR Single Cycle Kinetics, GDP-bound KRAS wild-type protein, 1:1 binding model; read-out: KRAS KD
# GDP-bound KRAS wild-type protein, sequence (P01116 whole entry): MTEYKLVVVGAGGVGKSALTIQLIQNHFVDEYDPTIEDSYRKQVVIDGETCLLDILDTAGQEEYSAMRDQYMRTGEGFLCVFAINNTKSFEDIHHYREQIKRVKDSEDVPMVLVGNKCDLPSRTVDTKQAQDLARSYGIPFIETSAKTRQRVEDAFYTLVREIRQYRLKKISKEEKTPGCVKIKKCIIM
# GDP-bound HRAS wild-type protein, sequence (P01112 whole entry): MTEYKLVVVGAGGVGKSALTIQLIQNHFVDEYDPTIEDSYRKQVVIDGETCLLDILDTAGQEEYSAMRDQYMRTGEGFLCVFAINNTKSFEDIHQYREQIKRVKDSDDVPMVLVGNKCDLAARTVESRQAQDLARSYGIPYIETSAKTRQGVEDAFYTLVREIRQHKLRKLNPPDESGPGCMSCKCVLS
# GDP-bound NRAS wild-type protein, sequence (P01111 whole entry): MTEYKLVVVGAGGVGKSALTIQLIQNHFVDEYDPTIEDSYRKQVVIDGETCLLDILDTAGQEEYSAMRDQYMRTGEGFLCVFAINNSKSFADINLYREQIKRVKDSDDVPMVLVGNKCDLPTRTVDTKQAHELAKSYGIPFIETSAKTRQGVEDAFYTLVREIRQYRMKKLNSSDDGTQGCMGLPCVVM
Kd [3] [nM],Structure (SMILES),NRAS/KRAS (ratio of KD value with respect to NRAS to KD value with respect to KRAS) [1],HRAS/KRAS (ratio of KD value with respect to HRAS to KD value with respect to KRAS) [2],NRAS/KRAS (ratio of KD value for NRAS to KD value for KRAS) [1],HRAS/KRAS (ratio of KD value for HRAS to KD value for KRAS) [2]
0.82,"CCCN1C(=O)[C@@H]2CCN2C(=O)CN(C)C(=O)[C@H]([C@@H](C)CC)NC(=O)[C@H](CC(C)C)N(C)C(=O)C[C@@H](C(=O)N2CCOCC2)NC(=O)[C@H](C2CCCC2)N(C)C(=O)C2(CCC2)NC(=O)[C@@H]2CC(F)(F)CN2C(=O)[C@H](CCc2ccc(C(F)(F)F)c(Cl)c2)NC(=O)CN(C)C(=O)[C@@H]1Cc1ccc(C(F)(F)F)cc1 [PP0352] ([NMeL]I[Sar][Aze][NPrPhe(4-CF3)][Sar][hPhe(3-Cl-4-CF3)][Pro(4,4-F2)][Ac4c][NMeGly(cPent)]D-Morpholide; lactam N-11)",–,–,C (A compound having a KD ratio of 0.1 or more and less than 3 is denoted as C),B (a compound having 3 or more and less than 10 is denoted as B)
0.22,CCC[C@H]1C(=O)N[C@@H]([C@@H](C)CC)C(=O)N(C)CC(=O)N(C)CC(=O)N(CCC)[C@@H](Cc2ccc(C(F)(F)F)cc2)C(=O)N(C)CC(=O)N[C@@H](CCc2ccc(C(F)(F)F)c(Cl)c2)C(=O)N2CCC[C@H]2C(=O)NC2(CCCC2)C(=O)N(C)[C@@H](C2CCCC2)C(=O)N(C)[C@H](C(=O)N2CCOCC2)CC(=O)N1C [PP0189] ([NMeNva]I[Sar][Sar][NPrPhe(4-CF3)][Sar][hPhe(3-Cl-4-CF3)]P[Ac5c][NMeGly(cPent)][NMeD]-Morpholide; lactam N-11),–,–,B (a compound having 3 or more and less than 10 is denoted as B),C (A compound having a KD ratio of 0.1 or more and less than 3 is denoted as C)
0.18,CC[C@H](C)[C@@H]1NC(=O)[C@H](CC(C)C)N(C)C(=O)C[C@@H](C(=O)N2CCOCC2)N(C)C(=O)[C@H](C2CCCC2)N(C)C(=O)C2(CCCC2)NC(=O)[C@@H]2CCCN2C(=O)[C@H](CCc2ccc(C(F)(F)F)c(Cl)c2)NC(=O)CN(C)C(=O)[C@H](Cc2ccc(C(F)(F)F)cc2)N(CC)C(=O)[C@@H]2CCN2C(=O)[C@H](C)N(C)C1=O [PP0002] ([NMeL]I[NMeA][Aze][NEtPhe(4-CF3)][Sar][hPhe(3-Cl-4-CF3)]P[Ac5c][NMeGly(cPent)][NMeD]-Morpholide; lactam N-11),–,–,C (A compound having a KD ratio of 0.1 or more and less than 3 is denoted as C),C (A compound having a KD ratio of 0.1 or more and less than 3 is denoted as C)

# The remaining lines, values behind:
Structure (SMILES),Kd [3] [nM],NRAS/KRAS (ratio of KD value with respect to NRAS to KD value with respect to KRAS) [1],HRAS/KRAS (ratio of KD value with respect to HRAS to KD value with respect to KRAS) [2],NRAS/KRAS (ratio of KD value for NRAS to KD value for KRAS) [1],HRAS/KRAS (ratio of KD value for HRAS to KD value for KRAS) [2]
CC[C@H](C)[C@@H]1NC(=O)[C@H](CC(C)C)N(C)C(=O)C[C@@H](C(=O)N2CCCC2)N(C)C(=O)[C@H](C2CCCC2)N(C)C(=O)C2(CCCC2)NC(=O)[C@@H]2CCCN2C(=O)[C@H](CCc2cc(F)c(C(F)(F)F)c(F)c2)NC(=O)CN(C)C(=O)[C@H](Cc2ccc(C(F)(F)F)cc2)N2CCCCC[C@@H](C2=O)N(C)C(=O)CN(C)C1=O [PP0509],2.4,B (a compound having 3 or more and less than 10 is denoted as B),B (a compound having 3 or more and less than 10 is denoted as B),–,–
CCCN1C(=O)CN(C)C(=O)CN(C)C(=O)[C@H]([C@@H](C)CC)NC(=O)[C@H](CC(C)C)N(C)C(=O)C[C@@H](C(=O)N2CCOCC2)N(C)C(=O)[C@H](C2CCCC2)N(C)C(=O)C2(CCCC2)NC(=O)[C@@H]2CCCN2C(=O)[C@H](CCc2ccc(C(F)(F)F)c(Cl)c2)NC(=O)CN(C)C(=O)[C@@H]1Cc1ccc(OC)cc1 [PP0135] ([NMeL]I[Sar][Sar][X16][Sar][hPhe(3-Cl-4-CF3)]P[Ac5c][NMeGly(cPent)][NMeD]-Morpholide; lactam N-11),0.75,–,–,B (a compound having 3 or more and less than 10 is denoted as B),C (A compound having a KD ratio of 0.1 or more and less than 3 is denoted as C)
CCO[C@@H]1C[C@H]2C(=O)NC3(CCC3)C(=O)N(C)[C@@H](C3CCCC3)C(=O)N(CCC3CCCC3)[C@H](C(=O)N(C)C)CC(=O)N(C)[C@@H](CC)C(=O)N[C@@H]([C@@H](C)CC)C(=O)N(C)CC(=O)N(C)[C@H]3CCCCCN(C3=O)[C@@H](Cc3ccc(C(F)(F)F)cc3)C(=O)N(C)CC(=O)N[C@@H](CCc3cc(F)c(C(F)(F)F)c(F)c3)C(=O)N2C1 [PP0636],8.6,A (a compound having 10 or more and less than 20 is denoted as A),A (a compound having 10 or more and less than 20 is denoted as A),–,–
